Key:
[1] = dissolution of the 11β-aminoester salts in aqueous acid (Table 5 and Examples 101, 225-229); assay type: physicochemical
Protocol: (§1) A solution of the above free base (492 mg; 1 mmole) in ethanol (10 ml) was treated with a solution (10 ml) of M/10 citric acid in ethanol water (9:1) and the mixture evaporated in vacuo at low temperature to afford a froth.
(§2) Table 5 summarises the properties and preparation of salts of the invention by one of the following methods:
(§3) A. The 11β-aminoester (1 part) was added to a solution of the acid (1 molar part) in water and the mixture stirred or shaken until a clear solution was obtained. The solution was made up with water to the weight indicated, filtered through a membrane and the pH determined.
(§4) B. The 11β-aminoester (1 part) was added to a solution of the acid (1 molar part) in water and the mixture stirred or shaken. As free base remained undissolved, further acid was added and the mixture agitated again. The solution was made up with water to the weight indicated and any material which then remained undissolved was collected in a weighed funnel and the weight of free base dissolved calculated and the pH of the solution measured.
(§5) C. A mixture of the 11β-aminoester (1 part), a 0.1 M solution of the acid (1 molar part) and ethanol was evaporated in vacuo and dried to constant weight. The residue was dissolved in a little water and any material which then remained undissolved collected in a weighed funnel and the weight of free base dissolved calculated. The solution was made up with water to the weight indicated and its pH measured.
(§6) D. The 11β-aminoester (1 part) was added to a solution of the acid (1 molar part) in water and the mixture stirred or shaken. The solution was made up with water to the weight indicated. The material remaining undissolved was collected in a weighed funnel and the weight of free base dissolved calculated and the pH of the solution measured.
(§7) E. As in method C except that further acid was added to the residue after addition of the small amount of water.
The solid citric acid used was as its monohydrate.
(§8) Sodium iodide (0.250 g) and diethylamine (0.5 ml) were added to a solution of 11β-chloroacetoxy-2β-ethoxy-3α-hydroxy-D-homo-5α-pregnan-20-one (0.250 g) in acetone (10 ml) and the mixture was left at room temperature for 3 days during which time a white solid precipated. Water was added and the yellow solution was concentrated in vacuo whereupon crystallisation occurred. The needles were filtered off and washed well with acetone/water yielding the title compound (0.201 g), m.p. 160°-73°, [α]D +60.8°. The above base (0.101 g) was stirred with citric acid monohydrate (0.042 g) in water (9.5 ml) for 21 hours. The solution was made up to 10.1 g by weight. The solid remaining out of solution was filtered off, dried and weighed. The solution was passed through a millipore filter giving an aqueous solution of the title compound, concentration 9.75 mg/ml, pH 3.66.
The above base (0.096 g) was stirred in a solution of citric acid monohydrate (0.038 g) in water (8.5 ml) for 20 hours. A large proportion of the steroid remained out of solution. More citric acid (0.038 g) was added and the mixture stirred for a further 6 hours. The solution was made up to 9.6 g by weight and the solid remaining out of solution was filtered off, dried and weighed. The solution was passed through a millipore filter giving an aqueous solution of the title compound, concentration 9.5 mg/ml, pH 2.85.
To a solution of citric acid monohydrate (52.5 mg) in water (2 ml) was added the above free base (115 mg). More water (8 ml) was added and the mixture was stirred for 72 hrs. A small amount of steroid remained out of solution and more citric acid (52.5 mg) was added. Within 5 mins. a clear solution was obtained which was made up to 11.5 g with water and filtered through a millipore filter yielding an aqueous solution of the title citrate, concentration 10 mg/ml, pH 3.0.
The above free base (112 mg) was added to a solution of citric acid monohydrate (52.5 mg) in water (2 ml). More water (8 ml) was added and the mixture was swirled from time to time. […]

pH of the salt solutions = assay type: physicochemical
Protocol: as §1, §2, §3, §4, §5, §6, §7
11β-N,N-Diethylaminoacetoxy-2β-ethoxy-3α-hydroxy-5α-pregnan-20-one (1.45 g) was agitated with citric acid monohydrate (621 mg) in 0.9% w/v sodium chloride solution (steriflex^(R)) (130 ml.) at 20° for 16.5 hours. The resulting solution was stirred at 21° and N/5 sodium hydroxide solution in steriflex^(R) (10.5 ml) was added dropwise during 30 minutes, raising the pH from 3.63 to 4.52. The solution was diluted to 162.5 g so that the concentration of steroid was 9 mg/ml. The solution of the citrate was filtered through a membrane and finally filtered into 8 sterile ampoules.
11β-(N-Butyl-N-ethylaminoacetoxy)-3α-hydroxy-5α-pregnan-20-one (1.80 g) was agitated with citric acid monohydrate (793 mg) in 0.9% w/v sodium chloride solution (steriflex^(R)) (160 ml) at 20° for 19.5 hours. The resulting solution was slightly cloudy. This solution was stirred at 21° and N/5 sodium hydroxide solution in steriflex^(R) (5.8 ml) was added dropwise during 15 minutes, raising the pH from 3.62 to 4.00. The solution was diluted to 201.2 g so that the concentration of steroid was 9 mg/ml. The cloudiness was removed by filtration through a membrane and the clear solution of the citrate was filtered into 8 sterile ampoules.
as §8, with “3.66. […]” for “3.66.”

[2] = method D: 1 molar part acid, undissolved material weighed, WT. of solution 10 g, except Ex. 136: 8.95, 140: 9.52, 165 and 167: 10.1, 190 and 198: 9.8, 191: 8.9, 194: 6.6, 204: 10.09, 219: 10.6 g
[3] = aqueous solution of the salt, Table 5
[4] = method C: ethanol evaporated, residue in water, undissolved material weighed, WT. of solution Ex. 118: 10, 120: 10.4, 148: 9.54, 152: 5.6, 154: 9.1, 155: 8.77, 156: 9.06, 157: 9.5, 158: 9.38, 159: 9.17, 179: 9.65, 180: 11.7, 182: 4.9, 202: 12.05, 213: 12, 214: 11.5, 215: 11.1, 216: 11.6, 217: 12.1 g
[5] = method A: clear solution, 1 molar part acid, made up with water to WT. of solution 10 g, except Ex. 121 and 150: 12, 123: 12.3, 124: 7.5, 129: 10.3, 135 and 139: 8.95, 164: 10.35, 170: 10.4, 181: 10.04, 187: 9.5, 210: 10.2, 221: 15 g
[6] = method E: as C with further acid, WT. of solution Ex. 160: 6.12, 161: 7.8, 203: 12.7, 212: 12.125, 220: 10 g
[7] = method B: further acid added, undissolved material weighed, WT. of solution 10 g, except Ex. 130 and 141: 9.2, 142: 9.23, 143, 144, 189 and 199: 9.8, 149: 10.6, 153: 7.9, 162 and 188: 9.5, 163: 68, 166: 10.4, 168: 10.7, 169: 10.9, 183: 8.05, 184 and 201: 9.83, 185: 7.1, 186: 9.3, 192: 10.07, 193: 6.4, 195: 6.8, 196: 7, 197: 7.2, 200: 10.1, 206: 15 g

SMILES | pH (pH of the salt solutions; [3]) | Dissolved aminoester [1, 7] | further results
CC(=O)[C@H]1CC[C@H]2[C@@H]3CC[C@H]4C[C@H](O)CC[C@]4(C)[C@H]3[C@@H](OC(=O)CNC3CC3)C[C@]12C [Example 145] | 2.93 |  | Dissolved aminoester [1, 2]: 93 mg
CCCN(CCC)CC(=O)O[C@H]1C[C@]2(C)[C@@H](C(C)=O)CC[C@H]2[C@@H]2CC[C@H]3C[C@H](O)[C@@H](OCC)C[C@]3(C)[C@H]21 [Example 120] | 3.5 |  | Dissolved aminoester [1, 4]: 87 mg
CC(=O)[C@H]1CC[C@H]2[C@@H]3CC[C@H]4C[C@H](O)CC[C@]4(C)[C@H]3[C@@H](OC(=O)CNCC(C)C)C[C@]12C [Example 135] | 3.27 |  | Dissolved aminoester [1, 5]: 80.5 mg
CCCN(CCC)CC(=O)O[C@H]1C[C@]2(C)[C@@H](C(C)=O)CC[C@H]2[C@@H]2CC[C@H]3C[C@H](O)CC[C@]3(C)[C@H]21 [Example 212] | 3.6 |  | Dissolved aminoester [1, 6]: 73 mg
CCCCN(C)CC(=O)OC1CC2(C)C(C(C)=O)CCC2C2CCC3CC(O)C(OC(C)=O)CC3(C)C12 (centres unmarked) [Example 170] | 3.7 |  | Dissolved aminoester [1, 5]: 104 mg
CC(=O)C1CCC2C3CCC4CC(O)CCC4(C)C3C(OC(=O)CNC(C)CC(C)C)CC12C (centres unmarked) [Example 163] | 3.08 | 68 mg | 
CC(=O)[C@H]1CC[C@H]2[C@@H]3CC[C@H]4C[C@H](O)CC[C@]4(C)[C@H]3[C@@H](OC(=O)CN3CCCC3)C[C@]12C [Example 155] | 3.45 |  | Dissolved aminoester [1, 4]: 87.7 mg
CCCO[C@H]1C[C@@]2(C)[C@@H](CC[C@@H]3[C@@H]2[C@@H](OC(=O)CN(CC)CC)C[C@]2(C)[C@@H](C(C)=O)CC[C@@H]32)C[C@@H]1O [Example 122] |  |  | Dissolved aminoester ([1]; method A, 0.9% w/v saline in place of water, WT. of solution Ex. 122: 37.5 g, 222: 50 g): 375 mg; pH (pH of the salt solutions; solution of the salt in saline, before any adjustment): 3.5
CC(=O)[C@H]1CC[C@H]2[C@@H]3CC[C@H]4C[C@H](O)[C@@H](Cl)C[C@]4(C)[C@H]3[C@@H](OC(=O)CN3CCC(C)CC3)C[C@]12C [Example 203] | 2.85 |  | Dissolved aminoester [1, 6]: 127 mg
CCCCN(C)CC(=O)O[C@H]1C[C@]2(C)[C@@H](C(C)=O)CC[C@H]2[C@@H]2CC[C@H]3C[C@H](O)[C@@H](Br)C[C@]3(C)[C@H]21 [Example 207] | 2.6 | 59 mg | 
CCN(C)CC(=O)O[C@H]1C[C@]2(C)[C@@H](C(C)=O)CC[C@H]2[C@@H]2CC[C@H]3C[C@H](O)CC[C@]3(C)[C@H]21 [Example 116] | 3.63 |  | Dissolved aminoester [1, 5]: 100 mg
CCN(CC)CC(=O)OC1CC2(C)C(C(C)=O)CCC2C2CCC3CC(O)C(C)CC3(C)C12 (centres unmarked) [Example 176] | 3.7 |  | Dissolved aminoester [1, 5]: 103 mg
CC(=O)[C@H]1CC[C@H]2[C@@H]3CC[C@H]4C[C@H](O)CC[C@]4(C)[C@H]3[C@@H](OC(=O)CN(C)[C@@H](C)CC(C)C)C[C@]12C [Example 199] | 3.12 | 88 mg | 
CCN(CC)CC(=O)OC1CC2(C)C(C(C)=O)CCC2C2CCC3CC(O)C(OC(C)C)CC3(C)C12 (centres unmarked) [Example 167] | 3.65 |  | Dissolved aminoester [1, 2]: 93 mg
CC(=O)[C@H]1CC[C@H]2[C@@H]3CC[C@H]4C[C@H](O)CC[C@]4(C)[C@H]3[C@@H](OC(=O)CN(C)C3CCCCC3)C[C@]12C [Example 127] | 3.62 |  | Dissolved aminoester [1, 5]: 100 mg
CCN(CC)CC(=O)OC1CC2(C)C(C(C)=O)CCC2C2CCC3CC(O)C(C)CC3(C)C12 (centres unmarked) [Example 173] | 2.82 | 78 mg | 
CC(=O)[C@H]1CC[C@H]2[C@@H]3CC[C@H]4C[C@H](O)CC[C@]4(C)[C@H]3[C@@H](OC(=O)CNC34CC5CC(CC(C5)C3)C4)C[C@]12C [Example 146] | 2.92 | 86 mg | 
CC(=O)[C@H]1CC[C@H]2[C@@H]3CC[C@H]4C[C@H](O)CC[C@]4(C)[C@H]3[C@@H](OC(=O)CN3CCC(C)CC3)C[C@]12C [Example 158] | 3.60 |  | Dissolved aminoester [1, 4]: 93.8 mg
CCCCN(CC)CC(=O)OC1CC2(C)C(C(C)=O)CCC2C2CCC3CC(O)C(C)CC3(C)C12 (centres unmarked) [Example 174] | 2.90 | 100 mg | 
